Experimental data: ChEMBL document CHEMBL3044941, “Synthesis and Structure-Activity Relationships of Dinotefuran Derivatives: Modification in the Tetrahydro-3-furylmethyl Part” (2004)

What was measured:
Nephotettix cincticeps = test: Insecticidal activity against 1 to 3 day-old adult Nephotettix cincticeps (green rice leafhopper) infested in compound-treated rice seedlings assessed as mortality measured after 3 days; format: functional
Laodelphax striatellus = test: Insecticidal activity against 1 to 3 day-old adult Laodelphax striatella (small brown planthopper) infested compound-treated rice seedlings assessed as mortality measured after 3 days; format: functional

| Structure (SMILES) | LC70 (Nephotettix cincticeps) [ppm] | LC70 (Laodelphax striatellus) [ppm] |
| --- | --- | --- |
| CN/C(=C\[N+](=O)[O-])NCC1CCOC1 (configuration not stated) | 0.1 | 0.1 |
| CN/C(=N\[N+](=O)[O-])NCC1CCOC1C (configuration not stated) | >1000 | >1000 |
| CN/C(=N\[N+](=O)[O-])NCC1(C)CCOC1 (configuration not stated) | >1000 | >1000 |
| O=[N+]([O-])/C=C1\NCCCN1CC1CCOC1 (configuration not stated) | 0.1 | 1 |
| O=[N+]([O-])/N=C1\NCCCN1CC1CCOC1 (configuration not stated) | 0.1 | 1 |
| CC1(C)CC(CN2CCCN/C2=N\[N+](=O)[O-])CO1 (configuration not stated) | 1 | 10 |
| CN/C(=N\[N+](=O)[O-])NCC1COC(C)(C)C1 (configuration not stated) | 1 | 100 |
| CN/C(=C\[N+](=O)[O-])NCC1COC(C)(C)C1 (configuration not stated) | 1 | 10 |
| CC1(C)CC(CN2CCCN/C2=C\[N+](=O)[O-])CO1 (configuration not stated) | 1 | 1 |
| CN/C(=N\[N+](=O)[O-])NCC1COC(C)C1 (mixture of isomers) | 1 | 10 |
| CCC1COCC1CN/C(=N/[N+](=O)[O-])NC (mixture of isomers) | 100 | >1000 |
| CN/C(=N\[N+](=O)[O-])NCC1COCC1C (mixture of isomers) | 1 | 10 |
| CCC1COCC1CN/C(=C/[N+](=O)[O-])NC (mixture of isomers) | 100 | >1000 |
| CC1COCC1CN1CCCN/C1=N\[N+](=O)[O-] (mixture of isomers) | 0.1 | 10 |
| CC1CC(CN2CCCN/C2=N\[N+](=O)[O-])CO1 (mixture of isomers) | 0.1 | 1 |
| CN/C(=N\[N+](=O)[O-])NCC1CCOC1OC (mixture of isomers) | >1000 | >1000 |
| CN/C(=N\[N+](=O)[O-])NCC1(C)COCC1C (mixture of isomers) | >1000 | >1000 |
| CN/C(=N\[N+](=O)[O-])NCC1COC(c2ccccc2)C1 (mixture of isomers) | >1000 | >1000 |
| CN/C(=C\[N+](=O)[O-])NCC1CCOC1C (mixture of isomers) | >1000 | >1000 |
| CN/C(=C\[N+](=O)[O-])NCC1CCOC1OC (mixture of isomers) | >1000 | >1000 |
| CN/C(=C\[N+](=O)[O-])NCC1COCC1C (mixture of isomers) | 1 | 1 |
| CN/C(=C\[N+](=O)[O-])NCC1COC(C)C1 (mixture of isomers) | 1 | 10 |
| CC1COCC1CN1CCCN/C1=C\[N+](=O)[O-] (mixture of isomers) | 0.1 | 1 |
| CCC1COCC1CN1CCCN/C1=C\[N+](=O)[O-] (mixture of isomers) | >1000 | 100 |
| CC1CC(CN2CCCN/C2=C\[N+](=O)[O-])CO1 (mixture of isomers) | 1 | 1 |
| CN/C(=N/CC1CCOC1)N[N+](=O)[O-] (configuration not stated) [DINOTEFURAN] | 0.1 | 0.1 |
